Measured values from patent publication US20260174829A1, “METHODS OF REDUCING TYPE 2 CYTOKINE-MEDIATED INFLAMMATION USING NEUROMEDIN PEPTIDES” (Rutgers, The State University of New Jersey, priority 2018, published 2026).

test system: TH2 cells; experiment: Anti-CD3/anti-CD28 stimulated lymph node cells (day 7 post-Nb), IL-5/IL-13 ELISA; assay type: cell-based, mouse; conditions: LN cells day 7 post-Nb, anti-CD3 and anti-CD28, 48 hours
Method: FIGS. 7A-7I. Nmb treatment is sufficient to suppress allergic airway inflammation. Mice challenged with papain were treated with PBS or Nmb (i.t.) and (A) Lung ILC2s, (B) IL-5+ and IL-13+ ILC2s, and (C) eosinophils were evaluated. […] Mesenteric lymph nodes (MLNs) were isolated on day 7 post-Nb and single cells suspensions were treated with anti-CD3 and anti-CD28 in the presence or absence of Nmb for 48 hours and (E), IL-5 and (F) IL-13 were quantified in cell-free supernatants by ELISA. (F-I), Modified versions of Nmb (see Table 2) were tested for their ability to alter IL-5 and IL-13 production from anti-CD3 and anti-CD28 MLN cells isolated on day 7 post-Nb. P values were determined by two-tailed Student's t-tests. Blue asterisks represent comparisons between media treated controls and native Nmb. Red asterisks represent comparisons between media treated controls and modified version of Nmb as described in Table 2. (*,p<0.05), (**,p<0.01), (***,p<0.001) or (F-I).
FIGS. 8A-8B. Mesenteric lymph nodes (MLNs) were isolated on day 7 post-Nb and single cells suspensions were treated with anti-CD3 and anti-CD28 in the presence or absence of native Nmb or modified versions of the peptide for 48 hours and (A), IL-5 and (B) IL-13 were quantified in cell-free supernatants by ELISA. P values were determined by two-tailed Student's t-tests. Blue asterisks represent comparisons between media treated controls and native Nmb. Red asterisks represent comparisons between media treated controls and modified version of Nmb as described in Table 2. (*,p<0.05), (**,p<0.01), (***,p<0.001).
At the time points evaluated post-Nb, the majority of the type 2 cytokines are ILC2-derived (14) and any effects Nmb is having on TH2 cell responses may be difficult to detect. To address this, lung-draining LNs were isolated on day 7 post-Nb and stimulated with anti-CD3 and -CD28 to activate T cells in both the presence of absence of recombinant Nmb. LN cells treated with anti-CD3 and -CD28 produced increased amounts of IL-5, and IL-13 (FIGS. 7D, 7E).
Thus, Nmb can be employed to reduce type 2 cytokine-mediated inflammation. Native Nmb is a 10-mer peptide (SEQ ID NO: 1) that operates via its ability to bind the Nmb receptor (15). This example describes the results of an alanine scan to systematically replace various residues of the Nmb with alanine (Table 2) and the resulting ability of the variant Nmb peptides to inhibit type 2 cytokine production by TH2 cells. Further, caps were added to the native form of Nmb (SEQ ID NO: 1) and its bioactivity monitored (FIG. 5A).

Molecule | capacity to inhibit IL-13 production compared to native Nmb | capacity to inhibit IL-5 production compared to native Nmb
Ac-GLLWATGHFM-amide (Ac-GLLWATGHFM-NH2) [J] | significantly greater capacity | 
H2N-ANLWATGHFM-amide (H-ANLWATGHFM-NH2) | significantly greater capacity | 
H2N-ATGHFM-amide (H-ATGHFM-NH2) [AI] | enhanced capacity | 
H2N-GALWATGHFM-amide (H-GALWATGHFM-NH2) [B] | significantly greater capacity | 
H2N-GLWATGHFM-amide (H-GLWATGHFM-NH2) [O] |  | reduced capacity
H2N-GNAWATGHFM-amide (H-GNAWATGHFM-NH2) [C] | significantly greater capacity | significantly reduced capacity
H2N-GNLAATGHFM-amide (H-GNLAATGHFM-NH2) | significantly greater capacity | 
H2N-GNLWATAHFM-amide (H-GNLWATAHFM-NH2) | significantly reduced capacity | significantly reduced capacity
H2N-GNLWATG-amide (H-GNLWATG-NH2) [AA] | enhanced capacity | significant enhanced capacity
H2N-GNLWATGFM-amide (H-GNLWATGFM-NH2) [U] |  | reduced capacity
H2N-GNLWATGH-amide (H-GNLWATGH-NH2) [X] | enhanced capacity | significant enhanced capacity
H2N-GNLWATGHAM-amide (H-GNLWATGHAM-NH2) | significantly reduced capacity | 
H2N-GNLWATGHF-amide (H-GNLWATGHF-NH2) |  | reduced capacity
H2N-GNLWATGHFA-amide (H-GNLWATGHFA-NH2) | significantly greater capacity | 
H2N-GNLWATGHFM-NHMe | significantly greater capacity | 
H2N-GNLWATGHM-amide (H-GNLWATGHM-NH2) [V] | reduced capacity | reduced capacity
H2N-GNLWATHFM-amide (H-GNLWATHFM-NH2) | enhanced capacity | 
H2N-GNLWTGHFM-amide (H-GNLWTGHFM-NH2) [R] | enhanced capacity | reduced capacity
H2N-GNWATGHFM-amide (H-GNWATGHFM-NH2) [P] |  | reduced capacity
H2N-LWATGH-amide (H-LWATGH-NH2) [AG] | enhanced capacity | significant enhanced capacity
H2N-LWATGHF-amide (H-LWATGHF-NH2) [AC] | enhanced capacity | 
H2N-LWATGHFM-amide (H-LWATGHFM-NH2) [Z] | enhanced capacity | 
H2N-NLWATGH-amide (H-NLWATGH-NH2) [AB] | enhanced capacity | 
H2N-NLWATGHF-amide (H-NLWATGHF-NH2) [Y] | enhanced capacity | significant enhanced capacity
H2N-NLWATGHFM-amide (H-NLWATGHFM-NH2) |  | reduced capacity
H2N-WATGHF-amide (H-WATGHF-NH2) [AH] | enhanced capacity | significant enhanced capacity
H2N-WATGHFM-amide (H-WATGHFM-NH2) [AD] | enhanced capacity | 
Methanesulfonyl-GNLWATGHFM-amide [K] | significantly greater capacity | significantly reduced capacity

test system: NMBR expression by ILC2s; experiment: NMBR expression by cultured lung ILC2s, flow cytometry; assay type: cell-based, mouse; conditions: ILC2s day 7 post-Nb, IL-2 and IL-7, overnight culture
Source text: FIG. 9. Basophils regulate NMBR expression. ILC2s were sort-purified from the lung of Nb-infected mice (day 7) and stimulated with survival cytokines (IL-7 and IL-2) and also with activated basophils, IL-4 or IL-33 overnight. NMBR expression was monitored by flow cytometric analysis post-culture. Data are presented as […] mean fluorescent intensity (GMFI). Statistical comparisons were done using a Student's t-test.
FIG. 14. Prostaglandin E2 upregulates expression of NMBR on lymphocytes. Lung ILC2s were sort-purified from the lungs of mice on day 7 post-Nb and cultured with a combination of survival cytokines (IL-2 and IL-7) and/or activating cytokines (IL-25 and IL-33). In addition, cultures were treated with NMB or prostaglandin E2 (PGE2) and the expression of NMBR was measured by flow cytometric analysis on day 4 post-culture. Statistical analysis was performed using a student's t-test. Negative NMBR staining as determined by an isotype control antibody is also shown (Isot).
NMBR expression by lung ILC2s was reduced when basophils are depleted following an Nb infection. To determine whether basophils directly mediate expression of NMBR or whether they operate through intermediate pathways, ILC2s were sort-purified from the lungs of Nb-infected mice (day 7) and cultured with the survival cytokines IL-2 and IL-7. Additionally, the ILC2s were cultured with activated basophils, IL-4, or IL-33 overnight. NMBR expression was subsequently monitored by flow cytometric analysis post-culture.
To better determine the mechanisms through which basophils regulate expression of NMBR on lymphocytes, ILC2s were cultured with a combination of survival and activating cytokines in the presence or absence of NMB or prostaglandin E2 (PGE2).

Molecule | NMBR expression levels on ILC2s
IL-33: cytokine known to promote ILC2 activation (protein, UniProt O95760 1-270, looked up) Interleukin-33: MKPKMKYSTNKISTAKWKNTASKALCFKLGKSQQKAKEVCPMYFMKLRSGLMIKKEACYFRRETTKRPSLKTGRKHKRHLVLAACQQQSTVECFAFGISGVQKYTRALHDSSITGISPITEYLASLSTYNDQSITFALEDESYEIYVEDLKKDEKKDKVLLSYYESQHPSNESGDGVDGKMLMVTLSPTKDFWLHANNKEHSVELHKCEKPLPDQAFFVLHNMHSNCVSFECKTDPGVFIGVKDNHLALIKVDSSENLCTENILFKLSET | no changes
IL-4: cytokine known to promote ILC2 activation (protein, UniProt P05112 25-153, looked up) Interleukin-4: HKCDITLQEIIKTLNSLTEQKTLCTELTVTDIFAASKNTTEKETFCRAATVLRQFYSHHEKDTRCLGATAQQFHRHKQLIRFLKRLDRNLWGLAGLNSCPVKEANQSTLENFLERLKTIMREKYSKCSS | no changes

same assay, conditions: ILC2s day 7 post-Nb, survival and/or activating cytokines, day 4 post-culture

Molecule | NMBR expression by ILC2s
CCCCC[C@H](O)/C=C/[C@H]1[C@H](O)CC(=O)[C@@H]1C/C=C\CCCC(=O)O [PGE2, prostaglandin E2, reference compound] | significantly upregulated
IL-33: cytokine known to promote ILC2 activation (protein, UniProt O95760 1-270, looked up) Interleukin-33: MKPKMKYSTNKISTAKWKNTASKALCFKLGKSQQKAKEVCPMYFMKLRSGLMIKKEACYFRRETTKRPSLKTGRKHKRHLVLAACQQQSTVECFAFGISGVQKYTRALHDSSITGISPITEYLASLSTYNDQSITFALEDESYEIYVEDLKKDEKKDKVLLSYYESQHPSNESGDGVDGKMLMVTLSPTKDFWLHANNKEHSVELHKCEKPLPDQAFFVLHNMHSNCVSFECKTDPGVFIGVKDNHLALIKVDSSENLCTENILFKLSET | failed to upregulate
IL-25: activating cytokine used in ILC2 cultures (protein, UniProt Q9H293 33-177, looked up) Interleukin-25: YSHWPSCCPSKGQDTSEELLRWSTVPVPPLEPARPNRHPESCRASEDGPLNSRAISPWRYELDRDLNRLPQDLYHARCLCPHCVSLQTGSHMDPRGNSELLYHNQTVFYRRPCHGEKGTHKGYCLERRLYRVSLACVCVRPRVMG | failed to upregulate
